Results: patent publication US20120295838A1, “Selective poly-substituted glycine antibiotics and related compositions” (priority 2008, published 2012)
Read-outs that look alike come from different tables or passages of the source. Numbered stars: 1 amine (or outer) side, 2 acyl side, 3 side chain; on linkers, the order of the positions; unused ones are H or OH. Square brackets hold non-standard residues; d marks the D form. Peptide text beside a SMILES is read from it. N(1S-Me-propyl)Gly = CC[C@H](C)NCC(=O)O; X1 = CC(C)[C@H](C)N(CC(=O)[*:2])[*:1]; Nrpe = C[C@@H](NCC(=O)O)c1ccccc1; Nspe = C[C@H](NCC(=O)O)c1ccccc1; Nlys = NCCCCNCC(=O)O

What was measured:
E. coli ATCC 35218 = type: cell-based; conditions: ATCC 35218
Description: Whereas the preceding generation of molecules was designed to elucidate structure function relationships of specific molecular parameters (chirality, length, hydrophobicity, etc.), another generation compounds were designed explicitly to explore effects on selectivity. Antimicrobial activity of these compounds was tested against bacterial strains E. coli (ATTC 35218) and B. subtilis (ATTC 6633) in cation-adjusted MHB using the microdilution protocols previously described. The sequences, antimicrobial activities, hemolytic activities, and metabolic inhibitory concentrations against NIH 3T3 mouse fibroblast cells are summarized in Table 3 and the rationale of their design is described below.
Screening antibacterial assays. MICs were determined in 96-well microtiter plates in accordance with CLSI M7-A6 protocols. Peptoid solutions with 50 μL total volume were prepared using 2:1 serial dilutions. 50 i—tL of bacteria inoculum (1×10^6 CFU/mL) prepared in cation-adjusted Mueller-Hinton broth (CAMHB) was added to test wells. Control wells contained 100 μL MHB (no growth) or 50 μL inoculums with 50 μL MHB with no peptoid. […] Reported values were reproducible over three experiments, each containing two parallel trials.
Antibacterial Assays for Compositions. MICs were determined according to CLSI M7-A6 protocols in a 96-well microtiter plate. In test wells, 50 μL bacterial inoculum (1×10^6 CFU/ml) in cation-adjusted Mueller-Hinton broth (CAMHB) was added to 50 μL peptoid solution in CAMHB (prepared by 1:2 serial dilutions). Positive controls contained 50 μL inoculum and 50 μL CAMHB without peptoid. […] MIC values reported were reproducible between three independent experimental replicates, each consisting of two parallel trials.

MTS assay, NIH 3T3 cells = type: cell-based, mouse; conditions: NIH 3T3 fibroblast cells
Description: The potencies of all compounds were determined against representative Gram-negative (E. coli ATCC 35218) and Gram-positive (B. subtilis ATCC 6633) biosafety level 1 (BSL1) organisms. In addition to hemolytic activity, the conventional measure of toxicity to mammalian cells, the effect of each ampetoid on NIH 3T3 mouse fibroblast cells was determined using the MTS tetrazolium salt-based colorimetric assay. While hemolysis measures the degree to which erythrocytes are lysed, the MTS assay indirectly quantifies the extent to which cellular metabolic activity is inhibited.
MTS assays. NIH/3T3 cells (ATCC Corporation) cultured at 37° C. and 5% CO2 in complete Dulbecco's modified eagle's media (CDMEM) supplemented with 1% sodium pyruvate, 1% penicillin-streptomycin, 1.5 g/L NaHCO3, and 10% fetal bovine serum. Cells were seeded at a density of 5,000 cells per well for NIH/3T3 cells in 96-well plates (100 μl total volume). A peptoid solution plate (100 μL total volume per well) was prepared by serial dilution of aqueous peptoid stock solution in Hank's balanced salt solution (HBSS) media. The day-old cell monolayers were washed with HBSS and media was replaced with 100 μL HBSS. The contents of the peptoid solution plate were transferred onto corresponding wells of the cell monolayer plate, and 40 μL MTS reagent (Promega, Inc.) was added to each well. After incubating for 3 hours at 37° C., absorbance at 490 nm was determined. […] The average of six replicates is reported.

human erythrocytes = experiment: Hemolysis assay; type: cell-based
Description: (§1) Hemolysis assays. Erythrocytes were isolated from freshly drawn, heparanized human blood and resuspended to 20 vol % in PBS (pH 7.4). In a 96-well microtiter plate, 100 μL erythrocyte suspension was added to 100 uL peptoid solution in PBS (prepared by 1:2 serial dilutions), or 100 μL PBS in the case of negative controls. 100% hemolysis wells contained 100 μL, blood cell suspension with 100 μL 0.2 vol % Triton X-100. The plate was incubated for 1 h at 37° C., then each well was diluted with 1504 PBS. The plate was then centrifuged at 1200 g for 15 min, 100 μL of the supernatant from each well transferred to a fresh microtiter plate, and A350 measured.
Hemolysis assays. Erythrocytes were isolated from freshly drawn, heparanized human blood and resuspended in PBS (pH 7.4) to make a 20% volume suspension. Peptoid solutions were prepared by serial dilution (2:1) in a 96-well microtiter plate. For test wells, 100 μLL of erythrocyte suspension was added to 100 μL of peptoid solution in PBS; PBS without peptoid was used as the negative control and 0.2 vol % Triton X-100 as the positive control that indicates 100% hemolysis. After 1 hour incubation at 37° C., each well was diluted with 150 μL PBS. Plates were then centrifuged at 1,200×g for 15 minutes to pellet the cells. 30 μL of the supernatant from each well were transferred to the corresponding well of a second 96-well plate that contains 70 μL PBS.
as §1, with “assays for Compositions.” for “assays.”, “100” for “100 uL”, “μL” for “μL,”, “150 μL” for “1504”, “1200g” for “1200 g”

[1] = Table 6, 50% inhibitory dose against NIH 3T3 mouse fibroblast cells, read-out: ID50

Row | E. coli MIC (E. coli ATCC 35218) [µM] | SMILES | CC50 at 3 h (MTS assay, NIH 3T3 cells; mouse) [µM] | also measured
1 | 3.1 | C[C@@H](c1ccccc1)N(CC(=O)N(CCCCN)CC(=O)N(CC(=O)N(CC(=O)N(CCCCN)CC(=O)N(CC(=O)N(CC(=O)N(CCCCN)CC(=O)N(CC(=O)N(CC(=O)N(CCCCN)CC(N)=O)[C@@H](C)c1ccccc1)[C@@H](C)c1ccccc1)[C@@H](C)c1ccccc1)[C@@H](C)c1ccccc1)[C@@H](C)c1ccccc1)[C@@H](C)c1ccccc1)C(=O)CN(C(=O)CNCCCCN)[C@@H](C)c1ccccc1 [113 mer, H-(Nlys-Nspe-Nspe)4-Nlys-NH2] (H-[Nlys][Nspe][Nspe][Nlys][Nspe][Nspe][Nlys][Nspe][Nspe][Nlys][Nspe][Nspe][Nlys]-NH2) | 5.6 | –
2 | 50 | C[C@@H](c1ccccc1)N(CC(N)=O)C(=O)CN(C(=O)CN(CCCCN)C(=O)[C@@H]1CCCN1C(=O)CN(C(=O)CN(CCCCN)C(=O)CN(C(=O)CN(C(=O)CN(CCCCN)C(=O)[C@@H]1CCCN1C(=O)CN(C(=O)CNCCCCN)[C@@H](C)c1ccccc1)[C@@H](C)c1ccccc1)[C@@H](C)c1ccccc1)[C@@H](C)c1ccccc1)[C@@H](C)c1ccccc1 [1-Pro3,9, H-(Nlys-Nspe-L-Pro-Nlys-Nspe-Nspe)2-NH2] (H-[Nlys][Nspe]P[Nlys][Nspe][Nspe][Nlys][Nspe]P[Nlys][Nspe][Nspe]-NH2) | 71 | –
3 | – | C[C@@H](c1ccccc1)N(CC(N)=O)C(=O)CN(C(=O)CN(CCC(=O)O)C(=O)CN(C(=O)CN(C(=O)CN(CCC(=O)O)C(=O)CN(C(=O)CN(C(=O)CN(CCC(=O)O)C(=O)CN(C(=O)CN(C(=O)CNCCC(=O)O)[C@@H](C)c1ccccc1)[C@@H](C)c1ccccc1)[C@@H](C)c1ccccc1)[C@@H](C)c1ccccc1)[C@@H](C)c1ccccc1)[C@@H](C)c1ccccc1)[C@@H](C)c1ccccc1 [1-Nglu1.4.7.10, H-(Nglu-Nspe-Nspe)4-NH2] | – | HD10 (10% hemolytic dose) (human erythrocytes; red cells of human, 1 h): >110/>110 μM
4 | – | C[C@@H](c1ccccc1)N(CC(N)=O)C(=O)CN(C(=O)CN(CCCCN)C(=O)CN(C(=O)CN(C(=O)CNCCCCN)[C@@H](C)c1ccccc1)[C@@H](C)c1ccccc1)[C@@H](C)c1ccccc1 [16 mer, H-(Nlys-Nspe-Nspe)2-NH2] (H-[Nlys][Nspe][Nspe][Nlys][Nspe][Nspe]-NH2) | – | HD10 (human erythrocytes): >200/>200 μM; HD50 (human erythrocytes): >200/>200 μM
5 | 12.5 | CC(C)[C@H](C)N(CC(=O)N(CCCCN)CC(=O)N(CC(=O)N(CC(=O)N(CCCCN)CC(=O)N(CC(=O)N(CC(=O)N(CCCCN)CC(=O)N(CC(=O)N(CC(N)=O)[C@@H](C)c1ccccc1)[C@@H](C)c1ccccc1)[C@@H](C)C(C)C)[C@@H](C)C(C)C)[C@@H](C)c1ccccc1)[C@@H](C)c1ccccc1)C(=O)CN(C(=O)CNCCCCN)[C@@H](C)C(C)C [1-Nsdp2,3,8,9, H-(Nlys-Nsdp-Nsdp-Nlys-Nspe-Nspe)2-NH2] (H-[Nlys][X1][X1][Nlys][Nspe][Nspe][Nlys][X1][X1][Nlys][Nspe][Nspe]-NH2) | 19 | –
6 | – | CC[C@H](C)N(CC(=O)N(CC(=O)N(CC(=O)N(CCCCN)CC(N)=O)[C@@H](C)c1ccccc1)[C@@H](C)CC)C(=O)CN(CCCCN)C(=O)CN(C(=O)CN(CCCCN)C(=O)CN(C(=O)CN(C(=O)CN(C(=O)CN(C(=O)CNCCCCN)[C@@H](C)CC)[C@@H](C)c1ccccc1)[C@@H](C)CC)[C@@H](C)c1ccccc1)[C@@H](C)c1ccccc1 [2scrambled, H-Nlys-Nssb-Nspe-Nssb-Nspe-Nlys-Nspe-Nlys-Nssb-Nssb-Nspe-Nlys-NH2] (H-[Nlys][N(1S-Me-propyl)Gly][Nspe][N(1S-Me-propyl)Gly][Nspe][Nlys][Nspe][Nlys][N(1S-Me-propyl)Gly][N(1S-Me-propyl)Gly][Nspe][Nlys]-NH2) | – | HD10 (10% hemolytic dose) (human erythrocytes): > 120 µM
7 | – | C[C@H](c1ccccc1)N(CC(N)=O)C(=O)CN(C(=O)CN(CCCCN)C(=O)CN(C(=O)CN(C(=O)CN(CCCCN)C(=O)CN(C(=O)CN(C(=O)CN(CCCCN)C(=O)CN(C(=O)CN(C(=O)CNCCCCN)[C@@H](C)c1ccccc1)[C@H](C)c1ccccc1)[C@@H](C)c1ccccc1)[C@H](C)c1ccccc1)[C@@H](C)c1ccccc1)[C@H](C)c1ccccc1)[C@@H](C)c1ccccc1 [1-Nrpe3,6,9,12, H-(Nlys-Nspe-Nrpe)4-NH2] | – | CC50 at 3 h (MTS assay, NIH 3T3 cells; [1]): 3.8 µM
8 | 6.3 | C[C@@H](c1ccccc1)N(CC(N)=O)C(=O)CN(CCCCN)C(=O)CN(C(=O)CN(C(=O)CN(CCCCN)C(=O)CN(C(=O)CN(C(=O)CN(CCCCN)C(=O)CN(C(=O)CN(C(=O)CNCCCCN)[C@@H](C)c1ccccc1)[C@@H](C)c1ccccc1)[C@@H](C)c1ccccc1)[C@@H](C)c1ccccc1)[C@@H](C)c1ccccc1)[C@@H](C)c1ccccc1 [111 mer, H-(Nlys-Nspe-Nspe)3-Nlys-Nspe-NH2] (H-[Nlys][Nspe][Nspe][Nlys][Nspe][Nspe][Nlys][Nspe][Nspe][Nlys][Nspe]-NH2) | 11 | –
9 | – | C[C@H](c1ccccc1)N(CC(=O)N(CC(N)=O)[C@@H](C)c1ccccc1)C(=O)CN(CCCCN)C(=O)CN(C(=O)CN(C(=O)CN(CCCCN)C(=O)CN(C(=O)CN(C(=O)CN(CCCCN)C(=O)CN(C(=O)CN(C(=O)CNCCCCN)[C@H](C)c1ccccc1)[C@@H](C)c1ccccc1)[C@H](C)c1ccccc1)[C@@H](C)c1ccccc1)[C@H](C)c1ccccc1)[C@@H](C)c1ccccc1 [1-Nrpe2,5,8,11, H-(Nlys-Nrpe-Nspe)4-NH2] (H-[Nlys][Nrpe][Nspe][Nlys][Nrpe][Nspe][Nlys][Nrpe][Nspe][Nlys][Nrpe][Nspe]-NH2) | – | CC50 at 3 h (MTS assay, NIH 3T3 cells; [1]): 5.2 µM
10 | – | C[C@H](c1ccccc1)N(CC(=O)N(CCCCN)CC(=O)N(CC(=O)N(CC(=O)N(CCCCN)CC(=O)N(CC(=O)N(CC(=O)N(CCCCN)CC(=O)N(CC(=O)N(CC(N)=O)[C@@H](C)c1ccccc1)[C@@H](C)c1ccccc1)[C@@H](C)c1ccccc1)[C@@H](C)c1ccccc1)[C@H](C)c1ccccc1)[C@H](C)c1ccccc1)C(=O)CN(C(=O)CNCCCCN)[C@H](C)c1ccccc1 [1-Nrpe2,3,5,6, H-(Nlys-Nrpe-Nrpe)2-(Nlys-Nspe-Nspe)2-NH2] (H-[Nlys][Nrpe][Nrpe][Nlys][Nrpe][Nrpe][Nlys][Nspe][Nspe][Nlys][Nspe][Nspe]-NH2) | – | CC50 at 3 h (MTS assay, NIH 3T3 cells; [1]): 4.8 µM
11 | – | C[C@H](NCC(=O)N(CCCCN)CC(=O)N(CC(=O)N(CCCCN)CC(=O)N(CCCCN)CC(=O)N(CCCCN)CC(=O)N(CC(=O)N(CCCCN)CC(=O)N(CC(=O)N(CCCCN)CC(=O)N(CCCCN)CC(=O)N(CC(N)=O)[C@@H](C)c1ccccc1)[C@@H](C)c1ccccc1)[C@@H](C)c1ccccc1)[C@@H](C)c1ccccc1)c1ccccc1 [1B12 mer-Nlys4,6,10, H-Nspe-Nlys-Nspe-Nlys-Nlys-Nlys-Nspe-Nlys-Nspe-Nlys-Nlys-Nspe-NH2] (H-[Nspe][Nlys][Nspe][Nlys][Nlys][Nlys][Nspe][Nlys][Nspe][Nlys][Nlys][Nspe]-NH2) | > 100 | –
